Source: PMC10975527 (Viruses, 2024)
Structures can show the parent of a compound that is named as a salt. Where two headings read alike, the source gives them in different places.

What was measured:
[1] = plasma, cited from earlier work
rats [2] = settings: cited from earlier work
monkeys = test system: monkeys; set-up: method as in earlier work; settings: 9 months dosing; cited from earlier work
HBV [3] = experiment: In vitro combination study in HepG2.2.15 cells; format: cell-based, hepatitis B virus; settings: for interference with HBsAg inhibition by AB-161: HepG2.2.15, combined with AB-161; for effect on the levels of HBsAg: HepG2.2.15, compound alone; for Antagonism / Synergy / Conclusion (combination effect): Inhibitor A combined with AB-161, HBV DNA; for Antagonism / Synergy: 99.9% confidence; for Conclusion (combination effect): Prichard and Shipman criteria
rats [4] = settings: rat, in vivo; cited from earlier work
dogs = settings: dog, in vivo; cited from earlier work
HBV [5] = experiment: HBV life cycle analysis in HepG2.2.15 cells; format: cell-based, hepatitis B virus; settings: ETV 1 μM, GLS4 1 μM, AB-161 100 nM
Wild-type HBV = experiment: HBV polymerase variant phenotyping in Huh-7: wild-type; settings: Hepatitis B virus, Huh-7, read-out: HBV DNA, EC50

| SMILES | interference with HBsAg inhibition by AB-161 (HBV [3]) | effect on the levels of HBsAg (HBV [3]) | Antagonism (HBV [3]) [µM^2%] | Synergy (HBV [3]) [µM^2%] | Conclusion (combination effect) (HBV [3]) | HBV DNA replication (HBV [5]) | intracellular HBV RNA (pgRNA, preS/S RNA) (HBV [5]) | viral proteins: HBV core and capsid assembly (HBV [5]) | also measured |
| --- | --- | --- | --- | --- | --- | --- | --- | --- | --- |
| COCCCOc1cc2c(cc1OC)-c1cc(=O)c(C(=O)O)cn1[C@H](C(C)C)C2 [RG7834] | – | – | – | – | – | – | – | – | protein binding ([1]; species not stated): ~56%; neurotoxicity (rats [2]; 6 months dosing): dose- and time-dependent neurotoxicity; male reproductive adverse events (rats [2]): abnormal sperm and testicular changes; neurotoxicity (monkeys): dose- and time-dependent neurotoxicity |
| CC(C)OC(=O)OCOP(=O)(CO[C@H](C)Cn1cnc2c(N)ncnc21)OCOC(=O)OC(C)C [TDF, tenofovir disoproxil fumarate] | did not interfere | do not affect | −0.43 ± 0.744 | 0.00 ± 0.00 | Additive | – | – | – | – |
| COCCCOc1cc2c(nc1OC)-c1cc(=O)c(C(=O)O)cn1[C@H](C(C)C)C2 [AB-452, (S)-6-Isopropyl-2-methoxy-3-(3-methoxypropoxy)-10-oxo-5,10-dihydro-6H-pyrido [1,2-h][1,7]naphthyridine-9-carboxylic Acid] | – | – | – | – | – | – | – | – | findings in male reproductive tissues (rats [4]): Decreased epididymis and minimal-to-mild spermatid depletion; histopathology of sciatic nerves (rats [4]): axonal degeneration; protein binding [1]: ~50%; histopathology of spinal nerves (dogs): axonal degeneration |
| C=C1[C@H](CO)[C@@H](O)C[C@@H]1n1cnc2c(=O)[nH]c(N)nc21 [ETV, entecavir] | did not interfere | do not affect | −3.99 ± 3.59 | 0.00 ± 0.00 | Additive | profoundly inhibited | no effect | no effect | EC50 (Wild-type HBV): 0.017 µM; EC50 (HBV [3]; Hepatitis B virus, HepG2.2.15, read-out: Inhibitor A EC50): 0.0051 ± 0.0011 µM |
| CCOC(=O)C1=C(CN2CCOCC2)NC(c2nccs2)=NC1c1ccc(F)cc1Br (centres unmarked) [GLS4] | – | – | – | – | – | substantially reduced | no effect | substantially reduced | – |
